# Measured values as given in ChEMBL document CHEMBL3132769, “Fragment growing to retain or alter the selectivity of anchored kinase hinge-binding fragments” (Medchemcomm, 2014).
# Key:
# [1] = target: Serine/threonine-protein kinase PAK 2 (Homo sapiens) (UniProt Q13177); assay: Inhibition of human truncated PAK2 expressed in Escherichia coli cell assessed as substrate phosphorylation using fluorescence-labelled peptides as substrate at 8 uM after 90 mins by microfluidic peptide phosphorylation assay
# Sequence of Serine/threonine-protein kinase PAK 2 (Homo sapiens) (Q13177 whole entry, the tested form may be a part): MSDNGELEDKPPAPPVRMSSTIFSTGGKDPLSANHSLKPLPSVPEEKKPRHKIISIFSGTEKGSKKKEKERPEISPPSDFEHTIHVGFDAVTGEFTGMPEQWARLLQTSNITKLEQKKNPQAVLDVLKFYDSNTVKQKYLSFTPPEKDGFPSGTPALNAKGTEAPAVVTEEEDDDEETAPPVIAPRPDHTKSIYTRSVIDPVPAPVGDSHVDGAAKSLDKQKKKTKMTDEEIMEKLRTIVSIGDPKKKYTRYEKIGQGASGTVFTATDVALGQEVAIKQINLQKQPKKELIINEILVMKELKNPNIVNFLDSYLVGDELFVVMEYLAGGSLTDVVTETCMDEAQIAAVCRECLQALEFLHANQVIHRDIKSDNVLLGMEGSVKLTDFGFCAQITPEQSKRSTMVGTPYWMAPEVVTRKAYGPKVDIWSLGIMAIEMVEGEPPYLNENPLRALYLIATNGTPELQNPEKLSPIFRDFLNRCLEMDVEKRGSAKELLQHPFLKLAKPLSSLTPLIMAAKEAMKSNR
# [2] = target: RAC-alpha serine/threonine-protein kinase (Homo sapiens) (UniProt P31749); assay: Inhibition of human AKT1 catalytic domain expressed in baculovirus assessed as substrate phosphorylation using fluorescence-labelled peptides as substrate at 0.2 uM after 90 mins by microfluidic peptide phosphorylation assay
# Sequence of RAC-alpha serine/threonine-protein kinase (Homo sapiens) (P31749 whole entry, the tested form may be a part): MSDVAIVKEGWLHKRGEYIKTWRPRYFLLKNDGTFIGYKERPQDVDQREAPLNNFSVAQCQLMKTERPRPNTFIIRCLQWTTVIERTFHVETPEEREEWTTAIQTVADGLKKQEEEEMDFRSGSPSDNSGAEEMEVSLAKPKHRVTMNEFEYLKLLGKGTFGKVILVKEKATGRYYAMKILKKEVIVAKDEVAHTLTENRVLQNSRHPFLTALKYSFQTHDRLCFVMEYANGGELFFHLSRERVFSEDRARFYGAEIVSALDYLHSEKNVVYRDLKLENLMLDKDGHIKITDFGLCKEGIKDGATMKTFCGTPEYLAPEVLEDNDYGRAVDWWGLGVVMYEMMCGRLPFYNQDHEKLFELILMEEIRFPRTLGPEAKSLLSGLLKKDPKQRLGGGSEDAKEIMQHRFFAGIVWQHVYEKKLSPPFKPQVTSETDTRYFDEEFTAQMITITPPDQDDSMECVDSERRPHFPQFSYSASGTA
# [3] = target: Platelet-derived growth factor receptor alpha (Homo sapiens) (UniProt P16234); assay: Inhibition of human PDGFR alpha catalytic domain expressed in baculovirus assessed as substrate phosphorylation using fluorescence-labelled peptides as substrate at 2 uM after 90 mins by microfluidic peptide phosphorylation assay
# Sequence of Platelet-derived growth factor receptor alpha (Homo sapiens) (P16234 whole entry, the tested form may be a part): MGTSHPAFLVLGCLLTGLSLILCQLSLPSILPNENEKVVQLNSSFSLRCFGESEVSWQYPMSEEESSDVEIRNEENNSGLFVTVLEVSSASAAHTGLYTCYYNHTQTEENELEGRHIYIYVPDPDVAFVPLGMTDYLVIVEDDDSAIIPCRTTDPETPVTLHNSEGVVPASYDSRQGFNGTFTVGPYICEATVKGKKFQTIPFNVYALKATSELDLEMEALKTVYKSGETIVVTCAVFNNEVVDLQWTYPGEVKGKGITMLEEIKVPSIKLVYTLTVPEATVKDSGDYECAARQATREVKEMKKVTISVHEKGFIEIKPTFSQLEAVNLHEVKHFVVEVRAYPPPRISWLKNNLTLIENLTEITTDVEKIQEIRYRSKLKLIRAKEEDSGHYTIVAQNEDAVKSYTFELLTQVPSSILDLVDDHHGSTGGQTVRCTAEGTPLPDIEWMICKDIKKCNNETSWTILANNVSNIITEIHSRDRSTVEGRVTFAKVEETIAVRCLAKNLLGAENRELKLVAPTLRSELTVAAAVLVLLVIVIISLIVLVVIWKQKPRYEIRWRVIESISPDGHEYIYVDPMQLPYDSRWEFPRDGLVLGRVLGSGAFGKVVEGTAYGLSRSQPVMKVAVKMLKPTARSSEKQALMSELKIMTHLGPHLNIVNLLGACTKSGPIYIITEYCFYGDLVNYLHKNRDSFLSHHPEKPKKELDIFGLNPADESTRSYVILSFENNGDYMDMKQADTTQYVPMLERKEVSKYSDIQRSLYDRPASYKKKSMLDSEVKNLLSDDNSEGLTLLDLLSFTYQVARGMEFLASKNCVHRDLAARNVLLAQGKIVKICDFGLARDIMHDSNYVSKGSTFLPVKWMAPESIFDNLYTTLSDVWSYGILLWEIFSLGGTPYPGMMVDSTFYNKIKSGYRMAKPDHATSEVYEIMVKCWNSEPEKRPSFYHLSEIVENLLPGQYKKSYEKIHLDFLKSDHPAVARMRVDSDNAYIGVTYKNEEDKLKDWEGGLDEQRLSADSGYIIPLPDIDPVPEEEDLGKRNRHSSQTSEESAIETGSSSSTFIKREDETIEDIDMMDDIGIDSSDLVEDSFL
# [4] = target: T1, Inhibitor of nuclear factor kappa-B kinase subunit beta (Homo sapiens) (UniProt O14920); assay: Inhibition of human full length IKK beta expressed in baculovirus assessed as substrate phosphorylation using fluorescence-labelled peptides as substrate at 2 uM after 90 mins by microfluidic peptide phosphorylation assay
# T1 sequence (whole entry): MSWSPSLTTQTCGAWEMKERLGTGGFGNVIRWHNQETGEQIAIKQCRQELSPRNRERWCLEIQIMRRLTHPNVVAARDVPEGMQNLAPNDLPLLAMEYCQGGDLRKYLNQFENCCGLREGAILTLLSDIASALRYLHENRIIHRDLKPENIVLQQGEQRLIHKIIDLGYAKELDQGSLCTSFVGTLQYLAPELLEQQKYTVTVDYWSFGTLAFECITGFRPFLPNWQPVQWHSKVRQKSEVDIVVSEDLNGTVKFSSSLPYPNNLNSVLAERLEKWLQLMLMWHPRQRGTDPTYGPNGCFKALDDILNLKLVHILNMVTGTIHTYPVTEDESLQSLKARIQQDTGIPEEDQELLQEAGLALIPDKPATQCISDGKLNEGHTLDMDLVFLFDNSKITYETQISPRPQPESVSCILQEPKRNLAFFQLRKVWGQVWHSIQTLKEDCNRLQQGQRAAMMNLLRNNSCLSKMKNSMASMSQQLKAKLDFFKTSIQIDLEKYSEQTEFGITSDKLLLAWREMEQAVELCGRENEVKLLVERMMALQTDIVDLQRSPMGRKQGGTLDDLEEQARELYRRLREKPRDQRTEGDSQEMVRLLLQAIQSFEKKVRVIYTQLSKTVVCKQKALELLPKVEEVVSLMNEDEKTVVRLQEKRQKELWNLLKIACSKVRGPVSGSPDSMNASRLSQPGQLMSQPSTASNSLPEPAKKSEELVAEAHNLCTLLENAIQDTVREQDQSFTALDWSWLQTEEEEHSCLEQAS
# [5] = target: MAP kinase-activated protein kinase 2 (Homo sapiens) (UniProt P49137); assay: Inhibition of human full length MAPKAPK2 expressed in baculovirus assessed as substrate phosphorylation using fluorescence-labelled peptides as substrate at 9 uM after 90 mins by microfluidic peptide phosphorylation assay
# Sequence of MAP kinase-activated protein kinase 2 (Homo sapiens) (P49137 whole entry, looked up): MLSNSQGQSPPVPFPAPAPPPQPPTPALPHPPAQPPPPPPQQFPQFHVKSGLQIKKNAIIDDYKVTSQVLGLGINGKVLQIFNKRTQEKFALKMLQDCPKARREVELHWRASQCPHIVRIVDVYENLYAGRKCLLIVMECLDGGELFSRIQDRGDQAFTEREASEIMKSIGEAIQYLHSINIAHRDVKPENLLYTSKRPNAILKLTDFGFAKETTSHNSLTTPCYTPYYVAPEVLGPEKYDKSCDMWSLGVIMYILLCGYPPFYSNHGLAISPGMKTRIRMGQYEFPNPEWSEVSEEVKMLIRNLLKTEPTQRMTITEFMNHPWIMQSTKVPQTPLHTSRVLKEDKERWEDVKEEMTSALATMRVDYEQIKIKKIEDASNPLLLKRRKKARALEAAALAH
# [6] = target: MAP kinase-activated protein kinase 3 (Homo sapiens) (UniProt Q16644); details: 0.1 uM
# Sequence of MAP kinase-activated protein kinase 3 (Homo sapiens) (Q16644 whole entry, looked up): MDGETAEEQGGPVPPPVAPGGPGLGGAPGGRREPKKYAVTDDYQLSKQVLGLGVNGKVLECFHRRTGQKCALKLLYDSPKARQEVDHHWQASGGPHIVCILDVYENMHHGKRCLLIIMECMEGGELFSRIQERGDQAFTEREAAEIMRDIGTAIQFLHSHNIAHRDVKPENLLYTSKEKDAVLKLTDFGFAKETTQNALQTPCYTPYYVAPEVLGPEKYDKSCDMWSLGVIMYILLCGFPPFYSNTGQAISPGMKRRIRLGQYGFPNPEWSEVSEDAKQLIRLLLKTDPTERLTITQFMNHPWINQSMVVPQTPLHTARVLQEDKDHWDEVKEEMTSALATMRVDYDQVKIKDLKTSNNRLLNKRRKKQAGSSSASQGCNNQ
# Description: Inhibition of human full length MAPKAPK3 expressed in Escherichia coli cell assessed as substrate phosphorylation using fluorescence-labelled peptides as substrate at 0.1 uM after 90 mins by microfluidic peptide phosphorylation assay
# [7] = target: T2, cGMP-dependent protein kinase 1 (Homo sapiens) (UniProt Q13976); assay: Inhibition of human full length PKG-1a expressed in baculovirus assessed as substrate phosphorylation using fluorescence-labelled peptides as substrate at 95 uM after 90 mins by microfluidic peptide phosphorylation assay
# T2 sequence (whole entry): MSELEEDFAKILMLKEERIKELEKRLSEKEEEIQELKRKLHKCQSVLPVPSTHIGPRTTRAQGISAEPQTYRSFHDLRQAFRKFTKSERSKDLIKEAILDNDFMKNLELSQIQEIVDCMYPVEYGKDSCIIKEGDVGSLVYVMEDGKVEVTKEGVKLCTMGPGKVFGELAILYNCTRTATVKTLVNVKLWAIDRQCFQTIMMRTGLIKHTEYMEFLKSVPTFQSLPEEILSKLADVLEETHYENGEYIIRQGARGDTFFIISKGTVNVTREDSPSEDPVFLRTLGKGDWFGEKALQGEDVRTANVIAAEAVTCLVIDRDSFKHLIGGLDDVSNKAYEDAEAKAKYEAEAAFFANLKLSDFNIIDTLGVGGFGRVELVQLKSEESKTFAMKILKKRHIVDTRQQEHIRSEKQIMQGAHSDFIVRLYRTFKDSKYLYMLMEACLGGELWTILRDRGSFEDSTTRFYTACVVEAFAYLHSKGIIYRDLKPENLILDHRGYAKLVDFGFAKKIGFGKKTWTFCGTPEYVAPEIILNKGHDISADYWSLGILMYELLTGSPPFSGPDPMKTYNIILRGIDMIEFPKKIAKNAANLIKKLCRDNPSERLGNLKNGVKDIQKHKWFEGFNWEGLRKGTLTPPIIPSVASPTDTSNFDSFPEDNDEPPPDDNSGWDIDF
# [8] = target: T3, Mitogen-activated protein kinase 12 (Homo sapiens) (UniProt P53778); assay: Inhibition of human full length p38 gamma expressed in Escherichia coli cell assessed as substrate phosphorylation using fluorescence-labelled peptides as substrate at 70 uM after 90 mins by microfluidic peptide phosphorylation assay
# T3 sequence (whole entry): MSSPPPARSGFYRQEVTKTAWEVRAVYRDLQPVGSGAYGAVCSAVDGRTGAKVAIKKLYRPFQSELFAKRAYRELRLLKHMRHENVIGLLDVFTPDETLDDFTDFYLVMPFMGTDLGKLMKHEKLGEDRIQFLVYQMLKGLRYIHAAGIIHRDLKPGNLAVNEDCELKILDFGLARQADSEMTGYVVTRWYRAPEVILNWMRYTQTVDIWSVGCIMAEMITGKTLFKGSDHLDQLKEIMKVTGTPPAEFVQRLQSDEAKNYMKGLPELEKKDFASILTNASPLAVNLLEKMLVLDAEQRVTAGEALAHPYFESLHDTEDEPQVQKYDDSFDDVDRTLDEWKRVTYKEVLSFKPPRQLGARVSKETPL
smiles,measurement,setting,value
NCC1CCN(c2ncnc3[nH]ccc23)CC1,inhibition,[1],24.5%
Clc1ccc(C2(c3ccc(-c4ncnc5[nH]cnc45)cc3)CCNCC2)cc1,inhibition,[2],94%
NC1CCN(c2ncnc3[nH]ccc23)CC1,inhibition,[3],5%
same,inhibition,[4],1%
NCC1CN(c2ncnc3[nH]c4cnccc4c23)CCO1 (stereo not drawn),inhibition,[5],19.5%
C[C@H](CN(C)C)Oc1nc(Nc2cc3cccc(Cl)c3cn2)cnc1C#N,inhibition,[6],0%
NCCc1ccc(-c2ncnc3[nH]cnc23)cc1,inhibition,[7],92%
CNCc1ccc(-c2ncnc3[nH]cnc23)cc1,inhibition,[8],15%
